# Values quoted from earlier work, collected in US11564931B2, “Low benzalkonium chloride bimatoprost ophthalmic compositions with effective penetration and preservation properties” (Somerset Therapeutics LLC, priority 2019, dated 2023).
# Conditions: patients starting on monotherapy; Covert D et al. 2006
row,Structure (SMILES),Rate of adjunctive medication use [%]
1,"CCNC(=O)CCC/C=C\C[C@@H]1[C@@H](/C=C/[C@@H](O)CCc2ccccc2)[C@H](O)C[C@@H]1O [bimatoprost, (Z)-7-[(1R, 2R, 3R, 5S)-3,5-Dihydroxy-2-[(1E, 3S)-3-hydroxy-5-phenyl-1-pentenyl]cyclopentyl]-5-N-ethylheptenamide]",23.2
2,CC(C)OC(=O)CCC/C=C\C[C@@H]1[C@@H](CC[C@@H](O)CCc2ccccc2)[C@H](O)C[C@@H]1O [latanoprost],30.2
3,CC(C)OC(=O)CCC/C=C\C[C@@H]1[C@@H](/C=C/[C@@H](O)COc2cccc(C(F)(F)F)c2)[C@H](O)C[C@@H]1O [travoprost],22.5
